Measurements as given in ChEMBL document CHEMBL5723587, “Data for DCP probe BI-113823” (2024).

Key:
[1] = target: Endothelin-1 receptor (Homo sapiens) (UniProt P25101); assay: Activity against ETA/HU in the Eurofins SafetyScreen44 (BI) by Radioactive Assay; conditions: Compound concentration 10.0 uM
[2] = target: Type-1 angiotensin II receptor (Homo sapiens) (UniProt P30556); assay: Activity against AT1/HU in the Eurofins SafetyScreen44 (BI) by Radioligand Binding; conditions: Compound concentration 10.0 uM
[3] = target: Gamma-aminobutyric acid receptor subunit alpha-1 (Rattus norvegicus) (UniProt P62813); assay: Activity against GABAA MUSCIMOL CENT in the Eurofins SafetyScreen44 (BI) by Scintillation counting; conditions: Compound concentration 10.0 uM
[4] = target: ATP-sensitive inward rectifier potassium channel 1 isoform X1 (Mesocricetus auratus) (UniProt A0A1U8CU73); assay: Activity against K+/KATP/HA in the Eurofins SafetyScreen44 (BI) by Radioactive Assay; conditions: Cricetinae; Compound concentration 10.0 uM
[5] = target: B2 bradykinin receptor (Homo sapiens) (UniProt P30411); assay: Activity against B2/HU in the Eurofins SafetyScreen44 (BI) by Radioactive Assay; conditions: Compound concentration 10.0 uM
[6] = target: Alpha-2A adrenergic receptor (Homo sapiens) (UniProt P08913); assay: Activity against ALPHA2A/H in the Eurofins SafetyScreen44 (BI) by Radioactive Assay; conditions: Compound concentration 10.0 uM
[7] = target: D(2) dopamine receptor (Homo sapiens) (UniProt P14416); assay: Activity against D2S/HU in the Eurofins SafetyScreen44 (BI) by Radioligand Binding; conditions: Compound concentration 10.0 uM
[8] = target: Alpha-1D adrenergic receptor (Homo sapiens) (UniProt P25100); assay: Activity against ALPHA1D/H in the Eurofins SafetyScreen44 (BI) by Others; conditions: Compound concentration 10.0 uM

Measured: residual activity

Chain of Gamma-aminobutyric acid receptor subunit alpha-1 (Rattus norvegicus) (P62813 whole entry, canonical isoform): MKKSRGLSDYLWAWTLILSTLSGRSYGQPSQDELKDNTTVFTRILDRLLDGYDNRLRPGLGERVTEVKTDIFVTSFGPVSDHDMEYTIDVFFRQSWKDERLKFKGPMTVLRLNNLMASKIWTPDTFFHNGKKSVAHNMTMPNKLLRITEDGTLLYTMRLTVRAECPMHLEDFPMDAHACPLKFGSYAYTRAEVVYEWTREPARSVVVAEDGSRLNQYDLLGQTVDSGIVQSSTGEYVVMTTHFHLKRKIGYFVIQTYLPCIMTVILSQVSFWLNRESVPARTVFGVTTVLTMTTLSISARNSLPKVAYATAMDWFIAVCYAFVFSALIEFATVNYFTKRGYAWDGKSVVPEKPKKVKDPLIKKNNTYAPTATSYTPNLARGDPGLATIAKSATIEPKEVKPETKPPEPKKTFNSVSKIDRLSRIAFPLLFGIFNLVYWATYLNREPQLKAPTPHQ
Chain of Alpha-1D adrenergic receptor (Homo sapiens) (P25100 whole entry): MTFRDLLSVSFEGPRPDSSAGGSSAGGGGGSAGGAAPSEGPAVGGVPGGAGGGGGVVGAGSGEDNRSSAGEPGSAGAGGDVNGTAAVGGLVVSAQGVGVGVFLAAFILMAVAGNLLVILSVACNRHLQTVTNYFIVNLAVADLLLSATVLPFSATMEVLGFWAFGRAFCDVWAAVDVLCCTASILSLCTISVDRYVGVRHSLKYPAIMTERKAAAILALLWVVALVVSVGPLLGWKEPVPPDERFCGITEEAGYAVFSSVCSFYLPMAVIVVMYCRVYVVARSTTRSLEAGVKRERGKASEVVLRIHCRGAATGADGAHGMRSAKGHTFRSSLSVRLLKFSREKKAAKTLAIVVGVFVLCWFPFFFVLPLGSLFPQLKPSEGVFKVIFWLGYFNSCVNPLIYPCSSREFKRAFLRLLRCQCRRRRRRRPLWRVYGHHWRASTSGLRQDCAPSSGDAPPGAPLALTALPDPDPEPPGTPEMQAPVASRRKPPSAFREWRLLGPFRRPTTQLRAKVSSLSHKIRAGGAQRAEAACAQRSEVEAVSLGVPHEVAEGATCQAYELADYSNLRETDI
Chain of Type-1 angiotensin II receptor (Homo sapiens) (P30556 whole entry): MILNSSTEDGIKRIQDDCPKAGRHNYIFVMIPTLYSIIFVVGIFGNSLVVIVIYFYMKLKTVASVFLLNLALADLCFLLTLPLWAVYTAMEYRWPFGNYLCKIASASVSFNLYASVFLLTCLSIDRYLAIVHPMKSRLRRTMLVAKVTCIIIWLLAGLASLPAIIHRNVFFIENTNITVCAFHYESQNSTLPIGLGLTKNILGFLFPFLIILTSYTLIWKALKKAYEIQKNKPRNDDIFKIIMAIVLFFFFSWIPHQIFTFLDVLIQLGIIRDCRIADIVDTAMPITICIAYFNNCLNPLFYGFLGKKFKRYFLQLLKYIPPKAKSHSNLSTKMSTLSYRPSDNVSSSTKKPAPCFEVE
Chain of ATP-sensitive inward rectifier potassium channel 1 isoform X1 (Mesocricetus auratus) (A0A1U8CU73 as listed by the source): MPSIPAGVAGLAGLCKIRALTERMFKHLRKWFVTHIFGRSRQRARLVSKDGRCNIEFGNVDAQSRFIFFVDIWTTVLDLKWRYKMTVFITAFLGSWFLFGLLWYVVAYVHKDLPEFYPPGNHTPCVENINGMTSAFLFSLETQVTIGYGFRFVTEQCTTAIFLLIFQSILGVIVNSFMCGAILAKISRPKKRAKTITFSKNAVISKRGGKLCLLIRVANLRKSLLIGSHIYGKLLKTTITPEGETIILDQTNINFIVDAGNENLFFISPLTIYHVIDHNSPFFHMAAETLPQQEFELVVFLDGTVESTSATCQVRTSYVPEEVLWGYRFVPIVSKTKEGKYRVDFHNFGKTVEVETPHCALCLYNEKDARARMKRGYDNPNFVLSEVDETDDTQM
Chain of Alpha-2A adrenergic receptor (Homo sapiens) (P08913 whole entry): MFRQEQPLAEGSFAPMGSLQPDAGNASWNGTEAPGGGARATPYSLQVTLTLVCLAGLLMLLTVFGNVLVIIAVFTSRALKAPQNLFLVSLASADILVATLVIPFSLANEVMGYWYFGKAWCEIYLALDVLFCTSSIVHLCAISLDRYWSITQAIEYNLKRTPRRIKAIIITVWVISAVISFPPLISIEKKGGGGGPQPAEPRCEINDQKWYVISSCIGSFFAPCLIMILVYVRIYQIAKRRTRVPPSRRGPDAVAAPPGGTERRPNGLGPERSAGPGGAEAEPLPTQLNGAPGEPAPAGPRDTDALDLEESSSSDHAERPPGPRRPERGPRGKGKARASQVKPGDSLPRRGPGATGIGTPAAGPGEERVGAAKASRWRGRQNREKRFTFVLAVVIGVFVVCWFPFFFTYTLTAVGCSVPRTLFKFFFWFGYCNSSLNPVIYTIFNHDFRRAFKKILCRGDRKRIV
Chain of B2 bradykinin receptor (Homo sapiens) (P30411 whole entry): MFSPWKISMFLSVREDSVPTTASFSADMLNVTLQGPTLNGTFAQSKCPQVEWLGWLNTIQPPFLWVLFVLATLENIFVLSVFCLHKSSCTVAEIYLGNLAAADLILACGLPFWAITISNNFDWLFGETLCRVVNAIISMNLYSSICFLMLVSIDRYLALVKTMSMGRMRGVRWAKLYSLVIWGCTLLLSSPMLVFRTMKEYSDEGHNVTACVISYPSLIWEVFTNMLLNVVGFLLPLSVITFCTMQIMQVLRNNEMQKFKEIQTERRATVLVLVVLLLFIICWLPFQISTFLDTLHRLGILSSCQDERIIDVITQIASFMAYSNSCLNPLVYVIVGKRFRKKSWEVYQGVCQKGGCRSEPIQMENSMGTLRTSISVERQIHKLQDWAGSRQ
Chain of D(2) dopamine receptor (Homo sapiens) (P14416 whole entry): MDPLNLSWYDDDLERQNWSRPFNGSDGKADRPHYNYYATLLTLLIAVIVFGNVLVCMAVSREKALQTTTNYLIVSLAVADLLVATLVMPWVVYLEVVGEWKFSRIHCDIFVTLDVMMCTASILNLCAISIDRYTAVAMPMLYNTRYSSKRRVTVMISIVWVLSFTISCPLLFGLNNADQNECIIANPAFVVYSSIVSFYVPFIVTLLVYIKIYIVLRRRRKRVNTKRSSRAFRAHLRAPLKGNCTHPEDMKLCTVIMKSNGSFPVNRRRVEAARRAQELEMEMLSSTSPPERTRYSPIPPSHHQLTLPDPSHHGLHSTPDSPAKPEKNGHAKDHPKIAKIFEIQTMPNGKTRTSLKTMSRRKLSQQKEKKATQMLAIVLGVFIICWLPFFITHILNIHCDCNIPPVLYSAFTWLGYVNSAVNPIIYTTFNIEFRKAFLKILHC
Chain of Endothelin-1 receptor (Homo sapiens) (P25101 whole entry): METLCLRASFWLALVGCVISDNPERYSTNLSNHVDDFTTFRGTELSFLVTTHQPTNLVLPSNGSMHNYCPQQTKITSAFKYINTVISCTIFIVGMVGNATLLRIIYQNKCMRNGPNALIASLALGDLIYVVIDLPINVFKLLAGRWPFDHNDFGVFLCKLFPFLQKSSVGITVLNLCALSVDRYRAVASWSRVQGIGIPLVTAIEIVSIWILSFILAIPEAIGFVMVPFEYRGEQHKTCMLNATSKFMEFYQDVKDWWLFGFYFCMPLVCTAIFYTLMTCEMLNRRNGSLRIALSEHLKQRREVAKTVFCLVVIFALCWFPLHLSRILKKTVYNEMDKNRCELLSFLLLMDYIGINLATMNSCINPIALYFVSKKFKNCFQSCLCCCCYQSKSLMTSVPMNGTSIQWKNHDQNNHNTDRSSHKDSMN

COc1cc(C)c(S(=O)(=O)N(C)CCOCC(=O)N(C)[C@H]2CCC[C@@H](N3CCN(C)CC3)C2)c(C)c1
inactive: [1] 96% | [2] 115% | [3] 101% | [4] 90% | [5] 108% | [6] 85% | [7] 105% | [8] 96%
